Data from patent US4762848A, “1,3-thiazoles and their use as immunomodulators” (Hoechst Aktiengesellschaft, priority 1985, dated 1988).

What was measured:
Candida albicans = experiment: Therapeutic treatment of chronic Candida albicans infection; assay type: in vivo, female Balb/c mice infected with Candida albicans; settings: for Urine infected with C. albicans d19 / Urine infected with C. albicans d24 / Kidneys infected with C. albicans / Necrotic kidneys: days 3-15; for Urine infected with C. albicans d19: day 19; for Urine infected with C. albicans d24: day 24; for Kidneys infected with C. albicans / Necrotic kidneys: day 26
Description: Increase in the Resistance of Balb/c Mice to Infection with Candida albicans
(a) Therapeutic treatment
For the therapeutic treatment of chronic Candida albicans infection, female Balb/c mice (16/group) were infected intravenously with Candida albicans (2.5×10^5 cfu/mouse) (day 0). After the infection had taken place, the animals were treated intraperitoneally on 13 consecutive days (days 3-15) with the test substance obtained as in Example 7; the concentrations were 0.5, 2.0, 5.0, 10.0, 30.0 and 60.0 mg/kg. The control animals received administrations of physiological saline solution. Urine was collected from the animals on days 19 and 24, and the organism count was determined. On day 26, the animals were sacrificed, and the organism count and the necroses in the kidneys were determined.

DTH reaction (SRBC) = experiment: Stimulation of the DTH reaction, relative to the compound from Example 7; assay type: in vivo, NMRI mice; settings: 200 mg/kg, 1 × i.p. day 0; Example 7 = 100%
Description: Either 10^6 or 10^9 red blood cells from sheep were administered intravenously to each animal in groups of 5 female NMRI mice weighing 18-20 g. Sheep erythrocytes are regarded in immunology as a standard test substance (antigen) for the induction of cellular and humoral immune reactions. In particular, this test provides information about the functioning of the T-cell-dependent component (T-helper cells) of the immune system. The test substance obtained as in exemplary embodiment 7 ([2-(3-carboxy-1-propylthio)-4 -methyl-1,3-thiazol-5-yl]acetic acid) was administered intraperitoneally and perorally, respectively, […], each animal received 2×10^8 sheep erythrocytes injected into the underside of the foot and, 24 hours later, the swelling of the foot was measured. The foot swelling is induced by a skin reaction of the delayed type (delayed type hypersensitivity, DTH) and is, as is known to the expert, a measure of the cellular immune response (Collins, F. M. and Mackaness, G. B., J. Immunol. 101, 830-845, 1968). The results compiled in Table 1 illustraste that there is an increase in the cellular immune response owing to the administration of the subst nce obtained according to the invention, for example after imnunization with 10^6 or 10^9 sheep erythrocytes. An optimum stimulation can be observed in this experimental design on administration of 20-40 mg/kg test substance.
NMRI mice were treated with the substances according to the invention as described in experiment 1.
The DTH reaction was checked as a test to determine the immunostimulation.
It can be seen from the table that the DTH reaction in the animals pretreated with the test substances is more pronounced than in the corresponding control animals.

macrophages = experiment: Stimulation of macrophage activity (exocytosis / lysosomal enzyme activity), relative to the compound from Example 7; assay type: in vivo, NMRI mice; settings: 100 mg/kg, 1 × i.p. day 0; relative to Example 7 = 100%
Description: This entailed investigation of the effect of the test substance obtained as in exemplary embodiment 7 on the stimulation of peritoneal macrophages in 6-8 week old NMRI mice. Female mice received the test substance in parenteral or oral doses of 25 mg/kg, 50 mg/kg, 100 mg/kg and 200 mg/kg. Buffered saline solution was administered to a control group. The mice were sacrificed three days after the injections, and the peritoneal macrophages of the animals were examined for their state of activation. The secretion of the lysosomal enzymes (β-galactosidase, β-glucuronidase and N-acetyl-β-D-glucosaminidase) was determined as one measure of macrophage activation. […] The level of oxidative metabolism in macrophages is taken as another measure of their state of activation. This activity is measured with the assistance of a biolumate by determination of the chemiluminescence.
For this purpose, either 3×10^6 macrophages were cultured with 1 ml of TC 199 culture medium in Petri dishes of diameter 30 mm or 10^6 macrophages were cultured with 100 μl of medium in round-bottomed polyethylene tubes (for determination of the chemiluminescence), with 5% CO2 and at 37° C.
After incubation for one hour, the cultures were washed to remove floating cells. The chemiluminescence (tube culture) was then determined directly, whereas the Petri dishes were incubated for a further 24 hours at 37° C. and then the enzyme and pinocytosis activities in the cultures were determined.
NMRI mice were treated with the compounds according to the invention as described in experiment 2.
The macrophage function (chemiluminescence and enzyme activity) was checked as a test to determine the immunostimulation.
It can be seen from the table that in comparison with macrophages from untreated animals, the chemiluminescence reaction of these cells was also greatly stimulated by all the test substances, and their content of lysosomal enzymes was markedly raised.

## Cc1nc(SCCCC(=O)O)sc1CC(=O)O [Example 7, [2-(3-Carboxy-1-propylthio)-4-methyl-1,3-thiazol-5-yl]acetic acid]
Candida albicans; 0.5 mg/kg i.p.
  Urine infected with C. albicans d19: 0%
  Urine infected with C. albicans d24: 6%
  Kidneys infected with C. albicans: 27%
  Necrotic kidneys: 27%
Candida albicans; 2.0 mg/kg i.p.
  Urine infected with C. albicans d19: 6%
  Urine infected with C. albicans d24: 6%
  Kidneys infected with C. albicans: 13%
  Necrotic kidneys: 7%
Candida albicans; 5.0 mg/kg i.p.
  Urine infected with C. albicans d19: 0%
  Urine infected with C. albicans d24: 7%
  Kidneys infected with C. albicans: 27%
  Necrotic kidneys: 47%
Candida albicans; 10.0 mg/kg i.p.
  Urine infected with C. albicans d19: 7%
  Urine infected with C. albicans d24: 21%
  Kidneys infected with C. albicans: 29%
  Necrotic kidneys: 43%
Candida albicans; 60.0 mg/kg i.p.
  Urine infected with C. albicans d19: 13%
  Urine infected with C. albicans d24: 13%
  Kidneys infected with C. albicans: 38%
  Necrotic kidneys: 31%
Candida albicans; therapeutic i.p. treatment, mice
  dose for optimal action in chronic Candida albicans infection: 0.5 to 5.0 mg/kg
DTH reaction (SRBC)
  DTH reaction (SRBC), relative activity: 100%
macrophages
  Macrophage activity: Exocytosis, relative activity: 100%
